Measured values published in PubChem BioAssay (NCI).
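Cultured in 96-well plates, cells were exposed to test compound for 48 hours across five concentrations. GI50: concentration for 50% inhibition of growth. TGI: concentration producing complete growth inhibition.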

Legend:
Assay in all cases: NCI anticancer screen, dose series, 48 h
[1] = system: U251 CNS
[2] = system: OVCAR-5 ovarian
[3] = system: KM12 colon
[4] = system: COLO 205 colon
[5] = system: SN12C renal
[6] = system: HS 578T breast
[7] = system: UACC-257 melanoma
[8] = system: A498 renal
[9] = system: NCI-H522 lung
[10] = system: HOP-92 NSCLC

| Structure (SMILES) | TGI [1] [µM] | TGI [2] [µM] | TGI [3] [µM] | TGI [4] [µM] | TGI [5] [µM] | TGI [6] [µM] | TGI [7] [µM] | TGI [8] [µM] | GI50 [1] [µM] | GI50 [9] [µM] | TGI [9] [µM] | GI50 [2] [µM] | GI50 [3] [µM] | GI50 [10] [µM] | TGI [10] [µM] | GI50 [5] [µM] | GI50 [6] [µM] | GI50 [7] [µM] | GI50 [8] [µM] | GI50 [4] [µM] |
| --- | --- | --- | --- | --- | --- | --- | --- | --- | --- | --- | --- | --- | --- | --- | --- | --- | --- | --- | --- | --- |
| COC(=O)C1(N2CCOCC2)CCC([C@@H](c2ccccc2)C(C)[N+](=O)[O-])C1 (stereo partly specified) | > 100 | > 100 | > 100 | > 100 | > 100 | > 100 | 86.9 | > 100 |  |  |  |  |  |  |  |  |  |  |  |  |
| Cc1c(-c2c(F)cc(C(N)=O)c3[nH]c4c(c23)CC[C@H](C(C)(C)O)C4)cccc1-n1c(=O)c2cccc(F)c2n(C)c1=O | > 100 | > 100 | > 100 |  | > 100 | > 100 | > 100 | 10.2 | 6.07 | 2.81 | 32.9 | 2.83 | 0.399 | 1.01 | 6.94 | 3.9 | 4.62 | 2.9 | 2.8 |  |
| Cc1ccc(O)c(C(=O)/C=C/c2ccccc2)c1 | > 100 | > 100 | > 100 | > 100 | > 100 | > 100 | > 100 |  |  |  | > 100 |  |  |  | > 100 |  |  |  |  |  |
| c1ccc2cc(Cn3c(-c4cccc5ccccc45)[n+](Cc4ccc5ccccc5c4)c4c5ccccc5c5ccccc5c43)ccc2c1 | 1.42 | 1.68 | 1.2 |  |  | 2.45 |  | 0.779 | 0.165 |  |  | 0.378 | 0.285 |  |  |  | 0.383 |  | 0.193 |  |
| COC1C[C@H](O[C@@H]2C[C@H](O[C@@H]3C[C@H](O[C@@H]4C(=O)c5c(cc6cc(O[C@H]7C[C@@H](O[C@H]8C[C@@H](O)[C@H](O)C(C)O8)[C@H](O)C(C)O7)c(C)c(O)c6c5O)C[C@H]4C(OC)C(=O)[C@@H](O)[C@@H](C)O)OC(C)[C@H]3O)OC(C)[C@@H]2O)OC(C)[C@@H]1O (stereo partly specified) | 29.6 | > 32.5 |  | 0.147 | > 32.5 | 4.96 | 0.262 | 0.108 | 0.0631 | 0.0696 | 0.265 | 0.106 |  | 0.0551 | 0.25 | 0.113 | 0.0743 | 0.0825 | 0.0395 | 0.0571 |
| C=C1[C@H](O)C[C@@H](C(C)C(O)CC=C(C)C)[C@@H](O)[C@@H]2C(C)=CC[C@@H]12 (stereo partly specified) | > 100 | > 100 | > 100 | > 100 | > 100 | > 100 | > 100 |  | > 100 | 30.3 | 86.4 | > 100 | > 100 | > 100 | > 100 | > 100 | > 100 | > 100 |  | > 100 |
| O=C(Nc1ccn(C2CCC(COC(c3ccccc3)(c3ccccc3)c3ccccc3)O2)c(=O)n1)c1ccccc1 (stereo unspecified) | 13.8 | 7.95 | 14.6 | 4.2 | 4.33 | 9.05 | 17.9 |  |  |  | 19.2 |  |  |  | 4.74 |  |  |  |  |  |
| [N-]=[N+]=NCCCn1c2c(c3ccccc3c1=O)C(=O)c1cc3c(cc1-2)OCO3 | > 100 | > 100 | > 100 |  | > 100 | > 100 | > 100 | > 100 | 28.7 | 15.6 | > 100 | > 100 | > 100 | 28.1 | > 100 | > 100 | > 100 | > 100 | 75 |  |
| CCCCCCCC(=O)[O-].N.N.N.N.N.[Co+3].[O-][Cl+3]([O-])([O-])[O-] | > 100 | > 100 | > 100 | > 100 | > 100 |  | > 100 | > 100 | > 100 | > 100 | > 100 | > 100 | > 100 | > 100 | > 100 | > 100 |  | > 100 | > 100 | > 100 |
| CCN(CC(O)COc1ccc2c(c1)[n+]([O-])nc(N)[n+]2[O-])C(C)=O (stereo unspecified) | > 100 | > 100 | > 100 | > 100 | > 100 | > 100 | > 100 | > 100 |  |  | > 100 |  |  |  |  |  |  |  |  |  |
| CC(=O)OCc1cc[c]([Hg][Cl])o1 | 5.02 | 30.2 | 42.2 | 3.29 | 29.9 | 65.6 | 26.8 |  | 2 | 0.709 | 2.45 | 11.8 | 16.8 | 2.51 | 6.36 | 5.24 | 9.99 | 13.5 |  | 1.63 |
| C#Cc1cccc(NC(=O)C2CCCCN2C(=O)CCl)c1 (stereo unspecified) | 35.8 | 27.2 | > 82.5 | 34.7 | 28.4 | 76.4 | > 82.5 |  | 15.1 | 8.72 | 24.4 | 13.1 | 37.1 | 12.5 | 43.3 | 12.2 | 18.4 | 26.2 |  | 15.6 |
| O=Cc1cc2sc(C=O)cc2s1 | > 100 | > 100 | > 100 | > 100 | > 100 |  | > 100 | 34.3 |  |  | > 100 |  |  |  | > 100 |  |  |  |  |  |
| CCCCCCCCCCCCCC(=O)OCC1OC(=O)C(O)C1O (stereo unspecified) | > 100 | > 100 | > 100 | > 100 | > 100 |  | > 100 | > 100 |  |  | > 100 |  |  |  | > 100 |  |  |  |  |  |
| O=C(Nc1c(Cl)cccc1Cl)Oc1cccc2cccnc12 |  | > 100 | 70.4 | > 100 | > 100 | 66.1 | 9.72 | 48 |  | 3.71 | 20.3 | 5.01 | 4.69 |  |  | 4.61 | 10.9 | 2.74 | 7.99 | 35.2 |
| Fc1ccc(Nc2ccnc(N3CCN(c4ccnc5cc(Cl)ccc45)CC3)n2)cc1 | 5.27 | > 100 | 6.66 |  | > 100 | 39 | 4.27 | 9.61 | 1.87 | 2.03 | 5.38 | 3.82 | 2.33 |  |  | 2.57 | 2.83 | 1.95 | 1.81 |  |
